Several values for one entry are separate records, joined by “and”; a condition that tells them apart may be missing. Equal entries are not always repeated.
Assays:
[1] = target: Cathepsin B (Homo sapiens, UniProt P07858); assay: Cathepsin B (CatB) cleavage assay; assay type: biochemical; conditions: BTCs
[2] = in vivo; conditions: male, CD-1, mouse, plasma, intravenous
Description: Male CD-1 mice were dosed with each Bicycle Conjugate formulated in 25 mM histidine HCl, 10% sucrose pH 7 via tail vein injection. Serial bleeding (about 80 μL blood/time point) was performed via submadibular or saphenous vein at each time point. All blood samples were immediately transferred into prechilled microcentrifuge tubes containing 2 μL K2-EDTA (0.5M) as anti-coagulant and placed on wet ice. Blood samples were immediately processed for plasma by centrifugation at approximately 4° C., 3000 g. The precipitant including internal standard (350 μL) was immediately added into the 35 μL plasma sample, mixed well and centrifuged at 3220 g, 4° C. for 15 minutes. The supernatant was transferred into pre-labeled polypropylene microcentrifuge tubes, and then quick-frozen over dry ice. The samples were stored at 70° C. or below as needed until analysis. Supernatant samples were mixed with 50 μL water, vortexed well and centrifuged at 3220 g, 4° C. for 15 minutes. A sample of the supernatant was injected for LC-MS/MS analysis using an Acquity UPLC with AB Sciex 6500+ Triple Quad MS in positive ion mode to determine the concentrations of Bicycle Conjugate and released payload. Plasma concentration versus time data were analyzed by non-compartmental approaches using the Phoenix WinNonlin 6.3 software program. C0, Cl, Vdss, T1/2, AUC(0-inf), MRT(0-last), MRT(0-inf) nd graphs of plasma concentration versus time profile were reported.

[3] = in vitro; conditions: cynomolgus monkey, plasma
[4] = tested on: HT1080 cells; conditions: 1 mg/kg and 3 mg/kg
Description: For Cell-Derived Xenograft (CDX) models, mice (balb/c nude, female, 18-23 g at study start) were inoculated with HT1080 cells (5.0×10^6 cells/mouse in 0.2 ml PBS to the right flank). Animals were randomized when the average tumour volume reached the pre-designated start size. Group size is n=4. All studies included a vehicle-treated control.
Dosing was conducted by intravenous bolus. Tumor volume was measured in two dimensions using a caliper, and the volume was expressed in mm^3 using the formula: V=0.5 a×b^2 where a and b are the long and short diameters of the tumor, respectively.

[5] = Plasma stability analysis, mouse plasma; conditions: plasma, BTCs
[6] = tested on: HT1080 xenograft; assay: In vivo efficacy study in the HT1080 xenograft model in BALB/c nude mice (Example 6); conditions: for Tumor volume, day 0 / Tumor volume, day 2 / Tumor volume, day 4 / Tumor volume, day 6 / Tumor volume, day 9 / T/C (%) / TGI (%) / Tumor volume, day 11: iv, qw; for Tumor volume, day 0: day 0 after the start of treatment; for Tumor volume, day 0 / Tumor volume, day 2 / Tumor volume, day 4 / Tumor volume, day 6 / Tumor volume, day 9 / Tumor volume, day 11: mean ± SEM; for T/C (%) / TGI (%) / Tumor volume, day 11: day 11
Description: • Species: Mus Musculus • Strain: BALB/c nude • Age: 6-8 weeks • Sex: female • Body weight: 18-22 g • Number of animals: 35 mice plus spare • Animal supplier: Shanghai Lingchang Biotechnology Experimental Animal Co., LTD. Housing Condition • The mice were kept in individual ventilation cages at constant temperature and humidity with 5 animals in each cage. • Temperature: 20˜26° C. • Humidity 40-70%. • Cages: Made of polycarbonate. The size is 375 mm×215 mm×180 mm.
The HT1080 cells were maintained in EMEM medium supplemented with 10% heat inactivated fetal bovine serum at 37° C. in an atmosphere of 5% CO2 in air. The tumor cells were routinely sub-cultured twice weekly. The cells growing in an exponential growth phase were harvested and counted for tumor inoculation.
Each mouse was inoculated subcutaneously at the right flank with HT1080 tumor cells (5×10^6) in 0.2 ml of PBS for tumor development. Animals were randomized when the average tumor volume reached 320 mm^3 for efficacy study. The test article administration and the animal numbers in each group were shown in the experimental design table.
All the procedures related to animal handling, care and the treatment in the study were performed according to the guidelines approved by the Institutional Animal Care and Use Committee (IACUC) of WuXi AppTec, following the guidance of the Association for Assessment and Accreditation of Laboratory Animal Care (AAALAC). At the time of routine monitoring, the animals were checked for any effects of tumor growth and treatments on normal behavior such as mobility, food and water consumption (by observation only), body weight gain/loss, eye/hair matting and any other abnormal effect as stated in the protocol. Death and observed clinical signs were recorded on the basis of the numbers of animals within each subset.
The major endpoint was to see if the tumor growth could be delayed or mice could be cured. Tumor volume was measured three times weekly in two dimensions using a caliper, and the volume was expressed in mm^3 using the formula: V=0.5 a×b^2 where a and b are the long and short diameters of the tumor, respectively. The tumor size was then used for calculations of T/C value. The T/C value (in percent) is an indication of antitumor effectiveness; T and C are the mean volumes of the treated and control groups, respectively, on a given day.
TGI was calculated for each group using the formula: TGI (%)=[1−(Ti−T0)/(Vi−Vo)]×100; Ti is the average tumor volume of a treatment group on a given day, T0 is the average tumor volume of the treatment group on the day of treatment start, Vi is the average tumor volume of the vehicle control group on the same day with Ti, and V0 is the average tumor volume of the vehicle group on the day of treatment start.
Summary statistics, including mean and the standard error of the mean (SEM), were provided for the tumor volume of each group at each time point.
Statistical analysis of difference in tumor volume among the groups was conducted on the data obtained at the best therapeutic time point after the final dose.
A one-way ANOVA was performed to compare tumor volume among groups, and when a significant F-statistics (a ratio of treatment variance to the error variance) was obtained, comparisons between groups were carried out with Games-Howell test. A two-tailed T test was performed to compare tumor volume between two groups. All data were analyzed using GraphPad 5.0. P<0.05 was considered to be statistically significant.

[7] = 7 animals of group 5 and 6 treated with BCY10984 45 μM, average starting tumor size 1291 mm^3

For `CC[C@H](C)[C@@H]([C@@H](CC(=O)N1CCC[C@H]1[C@H](OC)[C@@H](C)C(=O)N[C@H](C)[C@@H](O)c1ccccc1)OC)N(C)C(=O)[C@@H](NC(=O)[C@H](C(C)C)N(C)C(=O)OCc1ccc(NC(=O)[C@H](CCCNC(N)=O)NC(=O)[C@H](Cc2cccc3ccccc23)NC(=O)[C@H](CCC(=O)O)NC(=O)Cn2cc(CCC(=O)NCCC(=O)N(C)CC(=O)N(C)CC(=O)N(C)CC(=O)N(C)CC(=O)N(C)CC(=O)N(C)CC(=O)N(C)CC(=O)N(C)CC(=O)N(C)CC(=O)N(C)CC(=O)N[C@@H](C)C(=O)N[C@H]3CN(C)Cc4cc5cc(c4)CN(C)C[C@@H](C(N)=O)NC(=O)[C@H](C(C)(C)C)NC(=O)[C@H](CC(=O)O)NC(=O)[C@H](Cc4ccc(O)cc4)NC(=O)[C@H](Cc4ccccc4)NC(=O)[C@H](CC(=O)O)NC(=O)[C@H](CCC(=O)O)NC(=O)[C@H](CSC5)NC(=O)[C@@H](C)NC(=O)[C@H](Cc4cccc5ccccc45)NC(=O)[C@H](CCC(=O)O)NC(=O)[C@H](CC(N)=O)NC(=O)[C@@H](C)NC3=O)nn2)cc1)C(C)C` [BCY10984, MMAE-PAB-(Cit-1Nal-Glu)-BCY3900], the “% Parent remaining after incubation with CatB, 0 h” value ([1]; 0 h) was 100%, the “% Parent remaining after incubation with CatB, 1 h” value ([1]; 1 h) was 94.498% and the “% Parent remaining after incubation with CatB, 2 h” value ([1]; 2 h) was 83.5%. For the same compound, the “% Parent remaining after incubation with CatB, 4 h” value ([1]; 4 h) was 39.2%, the “% Parent remaining after incubation with CatB, 6 h” value ([1]; 6 h) was 33.4% and the “% Parent remaining after incubation with CatB, 24 h” value ([1]; 24 h) was 32.5%. For the same compound, the half-life at 40 μM ([1]; read-out: CatB t1/2 (converted)) was 3.3 h, the C0 [2] was 112 µg/mL and the Vd [2] was 0.09 L/kg. For the same compound, the clearance [2] was 0.2 mL/min/kg, the half-life [2] was 7.55 h and the fraction unbound [3] was 0.092. The “Body weights of the animals” value [4] was “not affected”, the half-life at 2 μM ([5]; pH 7.4, Mouse plasma t1/2 (EDTA), EDTA anticoagulant) was over 57.8 h and the half-life at 2 μM ([5]; pH 7.4, Mouse plasma t1/2 (Herparin), heparin anticoagulant) was 47.5 h. For the same compound, the “anti-tumor efficacy compared with BCY12951” value ([6]; 5 μM) was “comparable anti-tumor efficacy”, the anti-tumor activity ([6]; 5 μM, 15 μM and 45 μM qw) was “dose-dependent anti-tumor activity” and the “Tumor volume, day 0” value ([6]; 5 μM) was 320 ± 48 mm^3. For the same compound, the “Tumor volume, day 2” value ([6]; 5 μM) was 508 ± 49 mm^3, the “Tumor volume, day 4” value ([6]; 5 μM) was 681 ± 64 mm^3 and the “Tumor volume, day 6” value ([6]; 5 μM) was 750 ± 50 mm^3. For the same compound, the “Tumor volume, day 9” value ([6]; 5 μM) was 958 ± 53 mm^3, the “T/C (%)” value ([6]; 5 μM) was 72.6% and the “TGI (%)” value ([6]; 5 μM) was 33.6%. For the same compound, the “Tumor volume, day 11” value ([6]; 5 μM) was 1257 mm^3 and 1257 ± 95 mm^3, the “anti-tumor efficacy compared with BCY12951 at the same molar dosage” value ([6]; 15 μM and 45 μM) was “more potent efficacy” and the “Tumor volume, day 0” value ([6]; 15 μM) was 321 ± 43 mm^3. For the same compound, the “Tumor volume, day 2” value ([6]; 15 μM) was 519 ± 76 mm^3, the “Tumor volume, day 4” value ([6]; 15 μM) was 428 ± 88 mm^3 and the “Tumor volume, day 6” value ([6]; 15 μM) was 378 ± 128 mm^3. For the same compound, the “Tumor volume, day 9” value ([6]; 15 μM) was 304 ± 112 mm^3, the “T/C (%)” value ([6]; 15 μM) was 16.6% and the “TGI (%)” value ([6]; 15 μM) was 102.3%. The “Tumor volume, day 11” value ([6]; 15 μM) was 288 mm^3 and 288 ± 126 mm^3, the tumor eradication ([6]; 45 μM qw) was “eradicated the tumors completely on day 16” and the “Tumor volume, day 0” value ([6]; 45 μM) was 320 ± 32 mm^3. For the same compound, the “Tumor volume, day 2” value ([6]; 45 μM) was 489 ± 68 mm^3, the “Tumor volume, day 4” value ([6]; 45 μM) was 285 ± 90 mm^3 and the “Tumor volume, day 6” value ([6]; 45 μM) was 139 ± 46 mm^3. The “Tumor volume, day 9” value ([6]; 45 μM) was 29 ± 10 mm^3, the “T/C (%)” value ([6]; 45 μM) was 0.9% and the “TGI (%)” value ([6]; 45 μM) was 121.6%. The “Tumor volume, day 11” value ([6]; 45 μM) was 15 mm^3 and 15 ± 6 mm^3, the “tumor response after the first dosing” value [6, 7] was “sudden tumor regression” and the “tumor response after the second dosing” value [6, 7] was “all tumors were eradicated completely”. For the same compound, the “tumor growth (FIG. 17)” value ([6]; mice from Group 5 and 6 dosed with 45 μM BCY10984) was “potent inhibition of tumor growth”.

Source: patent publication US12540161B2, “Linkers” (BicycleTx Limited, priority 2020, dated 2026)
